Reference: ChEMBL document CHEMBL5723587, “Data for DCP probe BI-113823” (2024)

Legend:
Conditions in all cases: Compound concentration 10.0 uM
[1] = target: Adenosine receptor A1 (Homo sapiens) (UniProt P30542); assay: Activity against A1/HU in the Eurofins SafetyScreen44 (BI) by Radioactive Assay
[2] = target: Adenosine receptor A3 (Homo sapiens) (UniProt P0DMS8); assay: Activity against A3/H in the Eurofins SafetyScreen44 (BI)
[3] = target: Platelet-activating factor receptor (Homo sapiens) (UniProt P25105); assay: Activity against PAF/H in the Eurofins SafetyScreen44 (BI) by Radioactive Assay
Chain of Platelet-activating factor receptor (Homo sapiens) (P25105 whole entry): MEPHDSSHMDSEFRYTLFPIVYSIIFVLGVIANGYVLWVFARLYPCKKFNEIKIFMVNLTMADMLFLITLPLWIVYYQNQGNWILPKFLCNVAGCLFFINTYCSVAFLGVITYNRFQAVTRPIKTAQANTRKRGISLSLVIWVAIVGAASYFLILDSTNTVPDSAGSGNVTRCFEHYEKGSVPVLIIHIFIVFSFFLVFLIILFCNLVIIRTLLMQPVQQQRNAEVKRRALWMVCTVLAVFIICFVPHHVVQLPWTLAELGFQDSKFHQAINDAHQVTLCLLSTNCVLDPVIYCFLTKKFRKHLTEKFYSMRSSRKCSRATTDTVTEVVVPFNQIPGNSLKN

[4] = target: Glutamate NMDA receptor (Rattus norvegicus) (UniProt P35439+Q00959+Q00960+Q00961+Q62645+Q8VHN2+Q9R1M7); assay: Agonist activity in the Eurofins SafetyScreen44 (BI) against NMDAAGSI/RA by Radioactive Assay; format: protein-complex assay
[5] = target: Melatonin receptor type 1A (Homo sapiens) (UniProt P48039); assay: Activity against MT1/H in the Eurofins SafetyScreen44 (BI) by Radioactive Assay
Chain of Melatonin receptor type 1A (Homo sapiens) (P48039 whole entry): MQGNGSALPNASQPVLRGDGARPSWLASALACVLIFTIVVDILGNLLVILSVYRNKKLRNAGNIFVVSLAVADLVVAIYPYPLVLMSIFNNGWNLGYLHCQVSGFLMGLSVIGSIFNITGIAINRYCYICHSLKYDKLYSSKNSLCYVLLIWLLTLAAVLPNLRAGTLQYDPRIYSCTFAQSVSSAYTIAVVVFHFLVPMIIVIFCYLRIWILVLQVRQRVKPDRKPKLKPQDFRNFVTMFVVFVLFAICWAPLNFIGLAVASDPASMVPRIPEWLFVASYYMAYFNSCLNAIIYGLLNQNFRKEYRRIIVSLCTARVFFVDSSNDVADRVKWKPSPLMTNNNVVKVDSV

[6] = target: B2 bradykinin receptor (Homo sapiens) (UniProt P30411); assay: Activity against B2/HU in the Eurofins SafetyScreen44 (BI) by Radioactive Assay
Chain of B2 bradykinin receptor (Homo sapiens) (P30411 whole entry): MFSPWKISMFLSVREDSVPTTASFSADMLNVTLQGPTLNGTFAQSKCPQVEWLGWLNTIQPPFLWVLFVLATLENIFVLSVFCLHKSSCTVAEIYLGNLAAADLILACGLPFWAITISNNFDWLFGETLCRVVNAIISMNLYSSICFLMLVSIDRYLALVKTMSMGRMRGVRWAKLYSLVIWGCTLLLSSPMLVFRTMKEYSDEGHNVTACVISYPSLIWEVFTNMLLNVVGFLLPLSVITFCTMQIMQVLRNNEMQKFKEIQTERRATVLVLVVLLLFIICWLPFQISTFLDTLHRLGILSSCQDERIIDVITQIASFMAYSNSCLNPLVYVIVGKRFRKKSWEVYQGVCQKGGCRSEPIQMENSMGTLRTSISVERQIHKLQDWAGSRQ

[7] = target: Muscarinic acetylcholine receptor M1 (Homo sapiens) (UniProt P11229); assay: Activity against M1/HU in the Eurofins SafetyScreen44 (BI) by Radioactive Assay
Chain of Muscarinic acetylcholine receptor M1 (Homo sapiens) (P11229 whole entry): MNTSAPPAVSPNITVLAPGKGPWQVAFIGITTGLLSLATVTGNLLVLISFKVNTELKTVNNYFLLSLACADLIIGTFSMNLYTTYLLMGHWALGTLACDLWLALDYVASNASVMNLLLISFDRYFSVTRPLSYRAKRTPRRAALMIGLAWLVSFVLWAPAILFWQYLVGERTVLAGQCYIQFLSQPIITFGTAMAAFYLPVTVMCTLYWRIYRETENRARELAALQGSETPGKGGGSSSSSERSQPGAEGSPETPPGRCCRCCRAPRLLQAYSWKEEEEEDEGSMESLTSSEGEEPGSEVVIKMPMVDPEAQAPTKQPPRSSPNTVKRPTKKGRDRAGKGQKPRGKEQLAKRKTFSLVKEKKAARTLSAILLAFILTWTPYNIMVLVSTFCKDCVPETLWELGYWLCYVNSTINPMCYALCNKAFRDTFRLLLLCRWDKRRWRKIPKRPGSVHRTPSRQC

[8] = target: D(4) dopamine receptor (Homo sapiens) (UniProt P21917); assay: Activity against D4.2/H in the Eurofins SafetyScreen44 (BI) by Radioactive Assay
Chain of D(4) dopamine receptor (Homo sapiens) (P21917 whole entry): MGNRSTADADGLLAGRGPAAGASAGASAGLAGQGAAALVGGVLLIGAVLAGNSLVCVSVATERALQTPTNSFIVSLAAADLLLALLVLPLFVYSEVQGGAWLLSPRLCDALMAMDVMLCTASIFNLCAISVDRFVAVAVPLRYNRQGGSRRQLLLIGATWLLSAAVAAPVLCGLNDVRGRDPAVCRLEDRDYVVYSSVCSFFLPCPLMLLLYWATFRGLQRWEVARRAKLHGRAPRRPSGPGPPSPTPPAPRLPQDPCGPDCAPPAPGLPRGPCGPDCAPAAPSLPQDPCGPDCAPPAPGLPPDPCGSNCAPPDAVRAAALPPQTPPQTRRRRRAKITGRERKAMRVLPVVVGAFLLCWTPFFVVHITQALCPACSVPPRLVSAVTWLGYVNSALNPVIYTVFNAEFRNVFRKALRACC

Measured: residual activity

Chain of Adenosine receptor A3 (Homo sapiens) (P0DMS8 whole entry): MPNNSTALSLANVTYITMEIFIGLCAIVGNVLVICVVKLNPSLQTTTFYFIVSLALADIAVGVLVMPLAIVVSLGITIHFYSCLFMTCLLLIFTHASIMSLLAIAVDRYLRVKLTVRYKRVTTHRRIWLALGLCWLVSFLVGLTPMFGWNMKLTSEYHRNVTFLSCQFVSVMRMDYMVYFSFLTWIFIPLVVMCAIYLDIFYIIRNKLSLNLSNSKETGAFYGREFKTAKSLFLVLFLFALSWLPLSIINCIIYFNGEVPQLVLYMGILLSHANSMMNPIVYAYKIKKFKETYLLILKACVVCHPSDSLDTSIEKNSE
Chain of Adenosine receptor A1 (Homo sapiens) (P30542 whole entry): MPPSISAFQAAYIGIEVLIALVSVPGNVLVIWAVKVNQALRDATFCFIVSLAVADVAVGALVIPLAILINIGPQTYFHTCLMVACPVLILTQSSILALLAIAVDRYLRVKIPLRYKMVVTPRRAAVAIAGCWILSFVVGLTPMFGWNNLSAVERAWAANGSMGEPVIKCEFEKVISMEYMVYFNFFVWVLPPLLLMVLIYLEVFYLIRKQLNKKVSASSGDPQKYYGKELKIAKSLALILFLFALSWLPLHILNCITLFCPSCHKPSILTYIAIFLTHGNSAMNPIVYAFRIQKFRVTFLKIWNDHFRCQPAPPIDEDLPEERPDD

COc1cc(C)c(S(=O)(=O)N(C)CCOCC(=O)N(C)[C@H]2CCC[C@@H](N3CCN(C)CC3)C2)c(C)c1
inactive: [1] 99% | [2] 101% | [3] 87% | [4] 92% | [5] 97% | [6] 108% | [7] 88% | [8] 101%
